# Results published in patent US20240382612A1, “BIOACTIVE CONJUGATE, PREPARATION METHOD THEREFOR AND USE THEREOF” (priority 2017, published 2024).
# Columns and labels:
# Assay type in all cases: in vivo, Balb/c-nu mice
# [1] = test system: human gastric cancer cell line NCI-N87; assay: Experimental example 1: NCI-N87 gastric cancer subcutaneous xenograft, tumor inhibition; details: D21 after administration; IV, BIW×3W; BT001021 and Immu-132 3 mg/kg, toxins T-030 and SN-38 equimolar to ADC
# Protocol: (§1) Tumor-bearing mice (6 mice/group) with tumor volume of 100-200 mm^3 were randomly grouped (the number of groups was determined according to sample number). The administration volume was 10 ml/kg, and the administration route was tail intravenous injection. The mice were administered twice a week, and tumor diameter was measured with a vernier caliper, and tumor volume was calculated based on the following calculation formula: V=0.5 a×b^2, wherein a and b stand for the long diameter and short diameter of a tumor respectively. Animal deaths were observed and recorded every day.
# (§2) The tumor growth inhibition rate TGI (%) was calculated from the following formula to evaluate tumor inhibitory effect of antibody drug conjugates:
# (§3) Specifically, in the experimental examples 1 and 2, tumor-bearing mice models were constructed by subcutaneous xenograft of a human gastric cancer cell line NCI-N87 or a human triple negative breast cancer cell line HCC1806. After the tumor volume was about 100 mm^3, the mice were randomly grouped, and intravenously administered with BT001021 twice a week for a total of 6 times. Changes in tumor volume and animal body weight were measured twice a week to evaluate the efficacy (tumor inhibitory effect) of the antibody drug conjugate on tumor-bearing mice.
# NCI-N87 cells were cultured in a 1640 culture medium containing 10% fetal bovine serum at 37° C. and 5% CO2. NCI-N87 cells in the exponential growth stage were collected, resuspended in PBS to a suitable concentration, and inoculated subcutaneously into female Balb/c-nu mice to construct gastric cancer models. When the mean tumor volume was about 90 mm^3, the mice were randomly grouped into a physiological saline group, a BT001021 (3 mg/kg, IV, BIW×3W) group, a positive drug Immu-132 (3 mg/kg, IV, BIW×3W) group, a T030 group and a SN38 group according to the tumor size, followed by tail intravenous injection of corresponding drugs twice a week for a total of 6 times. After administration, the tumor volume and body weight of the mice were observed and measured regularly.
# [2] = test system: human breast cancer cell line HCC1806; assay: Experimental example 2: HCC1806 breast cancer subcutaneous xenograft, tumor inhibition; details: 10 mg/kg, IV, BIW×3W
# Protocol: as §1, §2, §3
# HCC1806 cells were cultured in a 1640 culture medium containing 10% fetal bovine serum at 37° C. and 5% CO2. HCC1806 cells in the exponential growth stage were collected, resuspended in PBS in a suitable concentration, and inoculated subcutaneously into female Balb/c-nu to construct breast cancer models. When the mean tumor volume was about 130 mm^3, the mice were randomly grouped into a physiological saline group, a BT001021 (10 mg/kg, IV, BIW×3W) group and a positive drug Immu-132 (10 mg/kg, IV, BIW×3W) group according to the tumor size, followed by tail intravenous injection of corresponding drugs twice a week for a total of […]. After administration, the tumor volume of the mice was observed and measured regularly.
# [3] = test system: human non-small cell lung cancer cell line HCC827; assay: Experimental example 3: HCC827 non-small cell lung cancer subcutaneous xenograft, tumor inhibition; details: D21 after administration; 10 mg/kg, IV, BIW×3W
# Protocol: as §1, §2
# The experimental example 3 was used to evaluate the inhibitory effect of BT001021 and BT001035 on proliferation of tumor-bearing mice models constructed by subcutaneous xenograft human tumor cells of HCC827 non-small cell lung cancer. […] Then changes in tumor volume and animal body weight were measured twice a week to calculate the efficacy (tumor inhibitory effect) of BT001021 and BT001035 on the tumor-bearing mice.
# HCC827 cells were cultured in a 1640 culture medium containing 10% fetal bovine serum at 37° C. and 5% CO2. […] After administration, the tumor volume and body weight of the mice were observed and measured regularly. […]
substance,measurement,setting,value
"Immu-132: positive drug; ADC prepared according to example 2 of WO2015/012904A2, DAR=5.4",Tumor Volume (mm^3) (x ± S),[1],259.04 ± 42.41 mm^3
same,Tumor growth inhibition rate (%),[1],46.46%
same,tumor growth of xenograft model mice (result in words),[2],did not show significant inhibitory activity
same,Tumor Volume (mm^3) (x ± S),[2]; D17 after administration,2347.05 ± 317.79 mm^3
same,Tumor growth inhibition rate (%),[2]; D17 after administration,11.62%
same,TGI (%),[3],85.19%
same,Tumor Volume (mm^3) (x ± S),[3],145.94 ± 19.72 mm^3
